Measured values: paper PMC11243256 (Molecules, 2024)
Where two headings read alike, the source gives them in different places.

How the values were obtained:
Experiment in all cases: microscale thermophoresis
Assay type in all cases: binding
[1] = biological target: T1, PYL6 (Arabidopsis thaliana, UniProt Q8S8E3)
T1 construct: NT-647-NHS labelled
T1 sequence (Q8S8E3 1-215): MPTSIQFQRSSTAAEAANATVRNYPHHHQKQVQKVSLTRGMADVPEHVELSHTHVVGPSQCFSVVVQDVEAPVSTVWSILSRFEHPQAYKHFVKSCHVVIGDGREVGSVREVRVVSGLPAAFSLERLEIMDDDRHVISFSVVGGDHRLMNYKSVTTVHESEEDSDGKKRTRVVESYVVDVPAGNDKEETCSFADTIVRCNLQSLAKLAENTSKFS
Text: microscale thermophoresis on PYL6

[2] = biological target: T2, PYL2 (Arabidopsis thaliana, UniProt O80992)
T2 construct: NT-647-NHS labelled
T2 sequence (O80992 1-190): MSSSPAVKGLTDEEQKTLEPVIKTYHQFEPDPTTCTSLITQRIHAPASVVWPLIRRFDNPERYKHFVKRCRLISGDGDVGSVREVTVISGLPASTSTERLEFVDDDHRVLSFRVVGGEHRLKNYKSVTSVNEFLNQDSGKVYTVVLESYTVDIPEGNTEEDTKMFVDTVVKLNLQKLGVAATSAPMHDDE
Text: microscale thermophoresis on PYL2

[3] = biological target: T3, PYR1 (Arabidopsis thaliana, UniProt O49686)
T3 construct: NT-647-NHS labelled; 'dimer PYR1' in the docking section
T3 sequence (O49686 1-191): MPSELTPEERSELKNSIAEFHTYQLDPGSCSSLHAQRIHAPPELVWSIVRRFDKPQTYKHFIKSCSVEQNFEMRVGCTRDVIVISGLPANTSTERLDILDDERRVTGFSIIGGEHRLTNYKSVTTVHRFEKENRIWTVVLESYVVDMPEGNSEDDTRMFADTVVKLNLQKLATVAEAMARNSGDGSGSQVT
Text: microscale thermophoresis on PYR1

[4] = biological target: T4, PYL3 (Arabidopsis thaliana, UniProt Q9SSM7)
T4 construct: NT-647-NHS labelled
T4 sequence (Q9SSM7 1-209): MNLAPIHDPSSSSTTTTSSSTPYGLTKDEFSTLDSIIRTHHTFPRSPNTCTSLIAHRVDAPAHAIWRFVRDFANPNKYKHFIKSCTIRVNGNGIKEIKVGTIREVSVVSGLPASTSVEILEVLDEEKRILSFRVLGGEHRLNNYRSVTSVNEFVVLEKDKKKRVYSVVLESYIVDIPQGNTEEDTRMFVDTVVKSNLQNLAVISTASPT

[5] = biological target: T5, PYL10 (Arabidopsis thaliana, UniProt Q8H1R0)
T5 construct: NT-647-NHS labelled; 'monomer PYL10' in the docking section
T5 sequence (Q8H1R0 1-183): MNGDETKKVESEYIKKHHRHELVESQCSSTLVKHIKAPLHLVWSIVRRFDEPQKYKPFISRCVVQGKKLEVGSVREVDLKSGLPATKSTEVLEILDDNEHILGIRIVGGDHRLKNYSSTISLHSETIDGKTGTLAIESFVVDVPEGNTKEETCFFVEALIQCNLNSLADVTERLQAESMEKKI
Text: microscale thermophoresis on PYL10

[6] = PBS, NT-647-NHS-labelled receptor

Compound	Kd [1] [µM]	Kd [2] [µM]	Kd [3] [µM]	Kd [4] [µM]	Kd [5] [µM]	Kd [1, 6] [µM]	Kd [2, 6] [µM]	Kd [3, 6] [µM]	Kd [4, 6] [µM]	Kd [5, 6] [µM]
CCCCCCOc1ccc2c(c1)C(=O)C(C)(C)CC2(O)/C=C/C(C)=C\C(=O)O (centres unmarked) [APA6]	1.62 ± 0.17	2.91 ± 0.17	121 ± 13.6	4.09 ± 0.65	44.9 ± 8.09					
CC(=C/C(=O)O)/C=C/C1(O)CC(C)(C)C(=O)c2cc(OCCCCc3ccccc3)ccc21 (centres unmarked) [APA11]	0.9 ± 0.22	0.46 ± 0.09	59.4 ± 3.41	3.11 ± 0.4	17.6 ± 2.11					
CC(=C/C(=O)O)/C=C/C1(O)CC(C)(C)C(=O)c2cc(OCCC(C)CC(C)(C)C)ccc21 (centres unmarked) [APA14]	2.55 ± 0.46	0.11 ± 0.01	60.8 ± 9.02	5.18 ± 0.84	45.5 ± 2.47					
CC(=C/C(=O)O)/C=C/C1(O)CC(C)(C)C(=O)c2cc(OCCC(C)CCCC(C)C)ccc21 (centres unmarked) [APA15]	1.99 ± 0.32	2.04 ± 0.29	37.9 ± 3.09	7.95 ± 1.66	36.3 ± 2.18					
CC(C)=CCCC(C)CCOc1ccc2c(c1)C(=O)C(C)(C)CC2(O)/C=C/C(C)=C\C(=O)O (centres unmarked) [APA16]	2.1 ± 0.31	5.84 ± 0.24	53.4 ± 4.71	7.84 ± 0.95	65 ± 2.76					
CCOCCOc1ccc2c(c1)C(=O)C(C)(C)CC2(O)/C=C/C(C)=C\C(=O)O (centres unmarked) [APA17]	13.1 ± 1.46	7.07 ± 0.21	42.2 ± 6.71	19 ± 2.1	23.9 ± 2.68					
COCCOCCOc1ccc2c(c1)C(=O)C(C)(C)CC2(O)/C=C/C(C)=C\C(=O)O (centres unmarked) [APA18]	4.17 ± 0.93	0.14 ± 0.02	73.9 ± 5.28	9.33 ± 1.39	37.5 ± 2.83					
CC1=CC(=O)CC(C)(C)[C@@]1(O)/C=C/C(C)=C\C(=O)O [compound 1, ABA]	19.5 ± 3.92	16.2 ± 4.84	188 ± 29		152 ± 31					
iso-PhABA						6.77 ± 0.32	7.54 ± 2.36	187 ± 22.3	16.3 ± 2.78	92 ± 5.13
